According to patent US20230064490A1, “FLUORESCENT PROTEIN BIOSENSOR FOR DETECTION OF KINASE ACTIVITY” (Lucidicor Inc., priority 2018, published 2023):

Each molecule was assayed on PKA (assay: PKA-PhosFluor fluorescence in transfected HEK-293 cells treated with drug). Settings: HEK-293 cells transfected with PKA-PhosFluor; excitation 488 nm, emission 530 nm; 6 hr after addition of drug.
Format: cell-based, human
Experimental: PKA-PhosFluor and cat_PKA are transcribed from different plasmids maintained by separate antibiotic resistance genes. FIG. 2C and FIG. 2D show charcoal agar plates streaked with E. coli containing the two plasmids indicated in B. The control plate lacks IPTG (FIG. 2C) while the IPTG plate was treated with 1 mM IPTG for 24 hours (FIG. 2D). […] Graphs depict % fluorescence change (excitation 488 nm; emission 530 nm) measured using a microplate reader 6 hr after addition of the indicated drug. Error bars indicate ±SEM (n=6). FIG. 2F is a schematic diagram showing mechanism of action for each drug.
Next, the ability of PKA-PhosFluor to monitor PKA activity in mammalian cells was examined. PKA activity is regulated by the level of cAMP, which itself, is regulated by other signaling pathways and cell growth (Uhler et al., 1986). […] All the drugs used have widely varying mechanisms of action (FIG. 2F).

Structure (SMILES)	fluorescence of PKA-PhosFluor (% fluorescence change)
CC(C)Cn1c(=O)n(C)c(=O)c2[nH]cnc21 [IBMX]	induced fluorescence
CCCCCCOC(=O)[C@]1(O)C[C@@H]2O[C@@]1(C)n1c3ccccc3c3c4c(c5c6ccccc6n2c5c31)C(=O)NC4 [KT-5720]	reduced fluorescence
Nc1ncnc2c1ncn2[C@@H]1O[C@@H]2COP(O)(=S)O[C@H]2[C@H]1O (some centres unmarked) [Rp-cAMP]	reduced fluorescence
O=S(=O)(NCCNC/C=C/c1ccc(Br)cc1)c1cccc2cnccc12 [H89]	reduced fluorescence
Nc1ncnc2c1nc(Br)n2[C@@H]1O[C@@H]2COP(=O)(O)O[C@H]2[C@H]1O [br-cAMP]	induced fluorescence
